Assays:
[1] = tested on: mouse model of acute hemolytic uremic syndrome (type 2 Shiga toxin); design: species or system mice; conditions: in vivo, 200 mg/kg
[2] = tested on: mouse model of acute hemolytic uremic syndrome (type 2 Shiga toxin); design: species or system mice; conditions: in vivo, 200 mg/kg; remark: listed apart in the source
yeast-type fungi = conditions: cited from earlier work
Hela cells = conditions: 72 h
[3] = tested on: mouse model of acute hemolytic uremic syndrome (type 2 Shiga toxin); design: species or system mice; conditions: in vivo, 200 mg/kg; remark: listed apart in the source

O=C(O)[C@H]1O[C@@H](Oc2cc3oc(-c4ccccc4)cc(=O)c3c(O)c2O)[C@H](O)[C@@H](O)[C@@H]1O [baicalin]
content of blood urea nitrogen (BUN) in mouse serum, drug administration group vs normal control group [1]: no significant difference | content of creatinine in mouse serum, drug administration group vs normal control group [1]: no significant difference | pathological changes of kidney [2]: only a minor hemorrhage existed in the kidney tissue, and there was no significant difference compared with mice in normal group | minimal inhibitory concentration (MIC) (yeast-type fungi): 70 to 100 µg/mL | inhibition of cytotoxicity of Hela cells caused by type 2 Shiga toxin (Hela cells): significantly inhibited the cytotoxicity of Hela cells caused by type 2 Shiga toxin, in a dose-dependent manner | survival rates of mice [3]: significantly increased

— patent US9629864B2 (priority 2013, dated 2017)
